PubChem BioAssay (NCI)
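96-well plates; 48 h exposure; 5 concentrations. Endpoints by linear interpolation between flanking doses. Not reached: highest tested concentration assigned. GI50 is the concentration that inhibits growth by half. TGI is the concentration that stops growth completely.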

What was measured:
Assay in all cases: NCI tumour cell line growth inhibition, 48 h
HOP-92 NSCLC = test system: HOP-92 NSCLC
LOX IMVI melanoma = test system: LOX IMVI melanoma
HT29 colon = test system: HT29 colon
MOLT-4 leukemia = test system: MOLT-4 leukemia
HL-60(TB) leukemia = test system: HL-60(TB) leukemia
HS 578T breast = test system: HS 578T breast
SW-620 colon = test system: SW-620 colon
UACC-62 melanoma = test system: UACC-62 melanoma
SK-OV-3 ovarian = test system: SK-OV-3 ovarian
KM12 colon = test system: KM12 colon
MDA-MB-435 = test system: MDA-MB-435
MCF7 breast = test system: MCF7 breast
NCI/ADR-RES ovarian = test system: NCI/ADR-RES ovarian
HOP-62 NSCLC = test system: HOP-62 NSCLC
OVCAR-4 ovarian = test system: OVCAR-4 ovarian
ACHN renal = test system: ACHN renal
BT-549 breast = test system: BT-549 breast
SR leukemia = test system: SR leukemia
RXF 393 renal = test system: RXF 393 renal
SN12C renal = test system: SN12C renal
TK-10 renal = test system: TK-10 renal
SK-MEL-5 melanoma = test system: SK-MEL-5 melanoma
COLO 205 colon = test system: COLO 205 colon
MDA-MB-231 breast = test system: MDA-MB-231 breast
DU-145 prostate = test system: DU-145 prostate
SNB-75 CNS = test system: SNB-75 CNS
SNB-19 CNS = test system: SNB-19 CNS
NCI-H23 lung = test system: NCI-H23 lung
A498 renal = test system: A498 renal
MALME-3M melanoma = test system: MALME-3M melanoma
SF-295 CNS = test system: SF-295 CNS
EKVX NSCLC = test system: EKVX NSCLC
NCI-H226 lung = test system: NCI-H226 lung
HCT-116 colon = test system: HCT-116 colon
CAKI-1 renal = test system: CAKI-1 renal
HCC-2998 colon = test system: HCC-2998 colon
HCT-15 colon = test system: HCT-15 colon
K-562 leukemia = test system: K-562 leukemia
OVCAR-8 ovarian = test system: OVCAR-8 ovarian
A549 NSCLC = test system: A549 NSCLC
SF-539 CNS = test system: SF-539 CNS
PC-3 prostate = test system: PC-3 prostate
NCI-H460 lung = test system: NCI-H460 lung
M14 melanoma = test system: M14 melanoma
SK-MEL-2 melanoma = test system: SK-MEL-2 melanoma
SK-MEL-28 melanoma = test system: SK-MEL-28 melanoma
CCRF-CEM leukemia = test system: CCRF-CEM leukemia
T-47D breast = test system: T-47D breast
UO-31 renal = test system: UO-31 renal
786-0 renal = test system: 786-0 renal
IGROV1 ovarian = test system: IGROV1 ovarian
UACC-257 melanoma = test system: UACC-257 melanoma
OVCAR-5 ovarian = test system: OVCAR-5 ovarian
RPMI-8226 leukemia = test system: RPMI-8226 leukemia
U251 CNS = test system: U251 CNS
SF-268 CNS = test system: SF-268 CNS
NCI-H522 lung = test system: NCI-H522 lung
OVCAR-3 ovarian = test system: OVCAR-3 ovarian

O=C1/C(=C/c2ccc(Cl)c(Cl)c2)CN(C(=O)CCN2CCC(=NO)CC2)C/C1=C\c1ccc(Cl)c(Cl)c1
GI50 (HOP-92 NSCLC): 1560 nM
TGI (HOP-92 NSCLC): 3820 nM
GI50 (LOX IMVI melanoma): 256 nM
TGI (LOX IMVI melanoma): 612 nM
GI50 (HT29 colon): 328 nM
TGI (HT29 colon): 1250 nM
GI50 (MOLT-4 leukemia): 458 nM
TGI (MOLT-4 leukemia): 2260 nM
GI50 (HL-60(TB) leukemia): 1480 nM
TGI (HL-60(TB) leukemia): 4370 nM
GI50 (HS 578T breast): 1430 nM
TGI (HS 578T breast): 5680 nM
GI50 (SW-620 colon): 247 nM
TGI (SW-620 colon): 708 nM
GI50 (UACC-62 melanoma): 664 nM
TGI (UACC-62 melanoma): 1870 nM
GI50 (SK-OV-3 ovarian): 1850 nM
TGI (SK-OV-3 ovarian): 3480 nM
GI50 (KM12 colon): 368 nM
TGI (KM12 colon): 1140 nM
GI50 (MDA-MB-435): 827 nM
TGI (MDA-MB-435): 2120 nM
GI50 (MCF7 breast): 333 nM
TGI (MCF7 breast): 1740 nM
GI50 (NCI/ADR-RES ovarian): 1020 nM
TGI (NCI/ADR-RES ovarian): 4040 nM
GI50 (HOP-62 NSCLC): 1260 nM
TGI (HOP-62 NSCLC): 3110 nM
GI50 (OVCAR-4 ovarian): 678 nM
TGI (OVCAR-4 ovarian): 1960 nM
GI50 (ACHN renal): 641 nM
TGI (ACHN renal): 1620 nM
GI50 (BT-549 breast): 829 nM
TGI (BT-549 breast): 1840 nM
GI50 (SR leukemia): 353 nM
TGI (SR leukemia): > 100000 nM
GI50 (RXF 393 renal): 1130 nM
TGI (RXF 393 renal): 2590 nM
GI50 (SN12C renal): 597 nM
TGI (SN12C renal): 1730 nM
GI50 (TK-10 renal): 1610 nM
TGI (TK-10 renal): 3180 nM
GI50 (SK-MEL-5 melanoma): 1580 nM
TGI (SK-MEL-5 melanoma): 3000 nM
GI50 (COLO 205 colon): 391 nM
TGI (COLO 205 colon): 1540 nM
GI50 (MDA-MB-231 breast): 616 nM
TGI (MDA-MB-231 breast): 1850 nM
GI50 (DU-145 prostate): 1210 nM
TGI (DU-145 prostate): 2730 nM
GI50 (SNB-75 CNS): 1380 nM
TGI (SNB-75 CNS): 3170 nM
GI50 (SNB-19 CNS): 599 nM
TGI (SNB-19 CNS): 1800 nM
GI50 (NCI-H23 lung): 1040 nM
TGI (NCI-H23 lung): 3010 nM
GI50 (A498 renal): 1440 nM
TGI (A498 renal): 2890 nM
GI50 (MALME-3M melanoma): 1320 nM
TGI (MALME-3M melanoma): 2780 nM
GI50 (SF-295 CNS): 1050 nM
TGI (SF-295 CNS): 2590 nM
GI50 (EKVX NSCLC): 1310 nM
TGI (EKVX NSCLC): 3050 nM
GI50 (NCI-H226 lung): 1260 nM
TGI (NCI-H226 lung): 2530 nM
GI50 (HCT-116 colon): 267 nM
TGI (HCT-116 colon): 778 nM
GI50 (CAKI-1 renal): 584 nM
TGI (CAKI-1 renal): 1780 nM
GI50 (HCC-2998 colon): 807 nM
TGI (HCC-2998 colon): 2110 nM
GI50 (HCT-15 colon): 325 nM
TGI (HCT-15 colon): 1160 nM
GI50 (K-562 leukemia): 191 nM
GI50 (OVCAR-8 ovarian): 651 nM
TGI (OVCAR-8 ovarian): 2620 nM
GI50 (A549 NSCLC): 2150 nM
TGI (A549 NSCLC): 6470 nM
GI50 (SF-539 CNS): 753 nM
TGI (SF-539 CNS): 1970 nM
GI50 (PC-3 prostate): 545 nM
TGI (PC-3 prostate): 1660 nM
GI50 (NCI-H460 lung): 933 nM
TGI (NCI-H460 lung): 2570 nM
GI50 (M14 melanoma): 782 nM
TGI (M14 melanoma): 2230 nM
GI50 (SK-MEL-2 melanoma): 2050 nM
TGI (SK-MEL-2 melanoma): 4300 nM
GI50 (SK-MEL-28 melanoma): 1640 nM
TGI (SK-MEL-28 melanoma): 3070 nM
GI50 (CCRF-CEM leukemia): 292 nM
TGI (CCRF-CEM leukemia): 1730 nM
GI50 (T-47D breast): 1100 nM
TGI (T-47D breast): 3590 nM
GI50 (UO-31 renal): 654 nM
TGI (UO-31 renal): 1340 nM
GI50 (786-0 renal): 609 nM
TGI (786-0 renal): 1450 nM
GI50 (IGROV1 ovarian): 534 nM
TGI (IGROV1 ovarian): 1410 nM
GI50 (UACC-257 melanoma): 1740 nM
TGI (UACC-257 melanoma): 3860 nM
GI50 (OVCAR-5 ovarian): 1130 nM
TGI (OVCAR-5 ovarian): 2740 nM
GI50 (RPMI-8226 leukemia): 253 nM
TGI (RPMI-8226 leukemia): 840 nM
GI50 (U251 CNS): 268 nM
TGI (U251 CNS): 818 nM
GI50 (SF-268 CNS): 1060 nM
TGI (SF-268 CNS): 2880 nM
GI50 (NCI-H522 lung): 369 nM
TGI (NCI-H522 lung): 1590 nM
GI50 (OVCAR-3 ovarian): 574 nM
TGI (OVCAR-3 ovarian): 1640 nM
